Data reported in patent publication US9624213B2 (Plexxikon Inc., priority 2011, dated 2017).

Experiments:
A375 = assay: A375_P-ERK / A375 cell activity; type: cell-based; conditions: Homo sapiens, A-375; A375 cells (A375_P-ERK)
Method: (§1) Compounds are assessed in a variety of cell based assays. For example human cell lines with B-Raf V600E mutation (A375 melanoma, SKMEL3 melanoma, and COLO205 colon adenocarcinoma), as well as tumorigenic cell lines with wild-type B-RAF (SW620 colon adenocarcinoma) or with Ras mutations (SKMEL2 melanoma and IPC298 melanoma). Similar assays may be used to assess additional tumorigenic cell lines with Ras mutations, including, but not limited to, M202, M207, M243, M244, M296, S117, HCT116, HCT15, DLD1, MiaPaCa, A549, NCI-H23, NCI-H460, HOP62, MDA-MB231, Hs-578T, HL60, MOLT-4, and CCRF-CEM.
(§2) On day 1, cells are counted, then centrifuged in a conical tube for 5 minutes at 1000 rpm. The supernatant is removed and cells are re-suspended as follows: • SW620 (ATCC catalog #CCL-27): resuspend in Leibovitz's L-15 medium, 2 mM L-glutamine, 10% fetal bovine serum to 6×10^4 cells/mL. • A375 (ATCC catalog #CRL-1619): resuspend in Dulbecco's modified Eagle's medium, 4 mM L-glutamine, 4.5 g/L D-glucose, 10% fetal bovine serum to 6×10^4 cells/mL. • COLO205 (ATCC catalog #CCL-222): resuspend in RPMI 1640, 2 mM L-glutamine, 1.5 g/L sodium bicarbonate, 4.5 g/L D-glucose, 10 mM HEPES, 1.0 mM sodium pyruvate, 10% fetal bovine serum to 6×10^4 cells/mL. • SKMEL2 (ATCC catalog #HTB-68): resuspend in Minimum Eagle essential medium, 2 mM L-glutamine, 1.5 g/L sodium bicarbonate, 0.1 mM non-essential amino acids, 1.0 mM sodium pyruvate, 10% fetal bovine serum to 6×10^4 cells/mL. • SKMEL3 (ATCC catalog #HTB-69): resuspend in McCoy's 5A medium, 1.5 mM L-glutamine, 15% fetal bovine serum to 6×10^4 cells/mL. • IPC298 (DSMZ catalog #ACC 251): resuspend in RPMI 1640, 2 mM L-glutamine, 10% fetal bovine serum to 6×10^4 cells/mL.
(§3) The cells are plated, 50 μL in each well of a 96-well dish (Corning 3610) and incubated at 37° C. in 5% CO2 overnight, cells plated to a final concentration of cells as follows: • SW620: 5,000 cells per well. • A375: 2,000 cells per well. • COLO205: 2,000 cells per well. • SKMEL2: 2,000 cells per well. • SKMEL3: 3,000 cells per well. • IPC298: 2,000 cells per well.
(§4) On day 2, compound at a maximum concentration of 5 mM is serially diluted 1:3 (e.g. 10 μL with 30 μL dimethyl sulfoxide) for a total of 8 point titration with DMSO as a control. A 1 μL aliquot of each dilution point and control is added to 249 μL growth media and 50 μL is added to a well containing cells, providing 10 μM compound at the maximum concentration point. The cells are incubated for 3 days at 37° C. in 5% CO2.
(§5) On day 5, ATPlite 1 step Luminescence Assay System (Perkin Elmer #6016739) is brought to room temperature along with the cell cultures. ATPlite is added 25 μL to each well, shake for 2 minutes, and the cells are incubated at room temperature for 10 minutes, then luminescence is read on Satire reader. The measured luminescence correlates directly with cell number, such that the reading as a function of compound concentration is used to determine the IC50 value.

COLO205 = COLO205 cell growth inhibitory activity (ATPlite); type: cell-based; conditions: Homo sapiens, COLO 205, 72 h; COLO205 cells, growth inhibition, 3 days
Method: as §1, §2, §3, §4, §5

Row | IC50 (A375) [µM] | IC50 (COLO205) [µM] | SMILES
1 | < 1 | < 1 | CCN(C)S(=O)(=O)Nc1ccc(F)c(C(=O)c2c[nH]c3ncc(-c4cccc(N(C)C)c4)cc23)c1F [Compound P-0302, 5-[3-(dimethylamino)phenyl]-3-[3-[[ethyl(methyl)sulfamoyl]amino]-2,6-difluoro-benzoyl]-1H-pyrrolo[2,3-b]pyridine]
2 | < 1 | > 1 | CCN(C)S(=O)(=O)Nc1cccc(C(=O)c2c[nH]c3ncc(-c4cnc(N5CCCC5)nc4)cc23)c1F [Compound P-0108, 3-[3-[[ethyl(methyl)sulfamoyl]amino]-2-fluoro-benzoyl]-5-(2-pyrrolidin-1-ylpyrimidin-5-yl)-1H-pyrrolo[2,3-b]pyridine]
3 | < 1 | < 1 | N#Cc1ncc(-c2cnc3[nH]cc(C(=O)c4cccc(NS(=O)(=O)N5CCCC5)c4F)c3c2)cn1 [Compound P-0091, N-[3-[5-(2-cyanopyrimidin-5-yl)-1H-pyrrolo[2,3-b]pyridine-3-carbonyl]-2-fluoro-phenyl]pyrrolidine-1-sulfonamide]
4 | < 1 | > 1 | CCN(C)S(=O)(=O)Nc1cccc(C(=O)c2c[nH]c3ncc(-c4ccccc4)cc23)c1F [Compound P-0036, 3-[3-[[ethyl(methyl)sulfamoyl]amino]-2-fluoro-benzoyl]-5-phenyl-1H-pyrrolo[2,3-b]pyridine]
5 | < 1 | < 1 | CN(C)c1ccc(-c2cnc3[nH]cc(C(=O)c4cccc(NS(=O)(=O)N(C)C)c4F)c3c2)cn1 [Compound P-0030]
6 | < 1 | < 1 | CN(C)S(=O)(=O)Nc1cccc(C(=O)c2c[nH]c3ncc(-c4ccc(C(C)(C)O)cc4)cc23)c1F [Compound P-0103, 3-[3-(dimethylsulfamoylamino)-2-fluoro-benzoyl]-5-[4-(1-hydroxy-1-methyl-ethyl)phenyl]-1H-pyrrolo[2,3-b]pyridine]
7 | < 1 | < 1 | CCCN(C)S(=O)(=O)Nc1cccc(C(=O)c2c[nH]c3ncc(-c4cnc(NC5CC5)nc4)cc23)c1F [Compound P-0082, 5-[2-(cyclopropylamino)pyrimidin-5-yl]-3-[2-fluoro-3-[[methyl(propyl)sulfamoyl]amino]benzoyl]-1H-pyrrolo[2,3-b]pyridine]
8 | < 1 | < 1 | COC(=O)C1(c2ccc(-c3cnc4[nH]cc(C(=O)c5cccc(NS(=O)(=O)N6CCCC6)c5F)c4c3)cc2)CC1 [Compound P-0254, methyl 1-[4-[3-[2-fluoro-3-(pyrrolidin-1-ylsulfonylamino)benzoyl]-1H-pyrrolo[2,3-b]pyridin-5-yl]phenyl]cyclopropanecarboxylate]
9 | < 1 | < 1 | CC(C)(O)c1ccc(-c2cnc3[nH]cc(C(=O)c4cccc(NS(=O)(=O)N5CCCC5)c4F)c3c2)cc1 [Compound P-0105, N-[2-fluoro-3-[5-[4-(1-hydroxy-1-methyl-ethyl)phenyl]-1H-pyrrolo[2,3-b]pyridine-3-carbonyl]phenyl]pyrrolidine-1-sulfonamide]
10 | < 1 | < 1 | O=C(c1c(F)ccc(NS(=O)(=O)N2CCCC2)c1F)c1c[nH]c2ncc(-c3ccc(Cl)cc3)cc12 [Compound P-0021]
11 | < 1 | > 1 | O=C(c1c(F)ccc(NS(=O)(=O)N2CCCC2)c1F)c1c[nH]c2ncc(I)cc12 [Compound P-0024]
12 | < 1 | > 1 | O=C(c1c(F)ccc(NS(=O)(=O)N2CCCC2)c1F)c1c[nH]c2ncc(F)c(I)c12 [Compound P-0015, N-[2,4-difluoro-3-(5-fluoro-4-iodo-1H-pyrrolo[2,3-b]pyridine-3-carbonyl)phenyl]pyrrolidine-1-sulfonamide]
13 | < 1 | < 1 | CN1CCN(c2cc(-c3cnc4[nH]cc(C(=O)c5c(F)ccc(NS(=O)(=O)N6CCCC6)c5F)c4c3)ncn2)CC1 [Compound P-0319, N-[2,4-difluoro-3-[5-[6-(4-methylpiperazin-1-yl)pyrimidin-4-yl]-1H-pyrrolo[2,3-b]pyridine-3-carbonyl]phenyl]pyrrolidine-1-sulfonamide]
14 | < 1 | < 1 | COc1ncc(-c2cnc3[nH]cc(C(=O)c4c(F)ccc(NS(=O)(=O)N5CCCC5)c4F)c3c2)s1 [Compound P-0270, N-[2,4-difluoro-3-[5-(2-methoxythiazol-5-yl)-1H-pyrrolo[2,3-b]pyridine-3-carbonyl]phenyl]pyrrolidine-1-sulfonamide]
15 | < 1 | < 1 | O=C(c1cccc(NS(=O)(=O)N2CCCC2)c1F)c1c[nH]c2ncc(-c3cnc(NC4CC4)nc3)cc12 [Compound P-0232, N-[3-[5-[2-(cyclopropylamino)pyrimidin-5-yl]-1H-pyrrolo[2,3-b]pyridine-3-carbonyl]-2-fluoro-phenyl]pyrrolidine-1-sulfonamide]
16 | < 1 | < 1 | CCN(C)S(=O)(=O)Nc1cccc(C(=O)c2c[nH]c3ncc(-c4ccc(C#N)cc4)cc23)c1F [Compound P-0031]
17 | < 1 | < 1 | O=C(c1c(F)ccc(NS(=O)(=O)N2CCCC2)c1F)c1c[nH]c2ncc(-c3cnc(N4CCOCC4)nc3)cc12 [Compound P-0266, N-[2,4-difluoro-3-[5-(2-morpholinopyrimidin-5-yl)-1H-pyrrolo[2,3-b]pyridine-3-carbonyl]phenyl]pyrrolidine-1-sulfonamide]
18 | < 1 | > 1 | CN(C)S(=O)(=O)Nc1cccc(C(=O)c2c[nH]c3ncc(-c4ccccc4)cc23)c1F [Compound P-0037, 3-[3-(dimethylsulfamoylamino)-2-fluoro-benzoyl]-5-phenyl-1H-pyrrolo[2,3-b]pyridine]
19 | < 1 | > 1 | COc1ncc(-c2cnc3[nH]cc(C(=O)c4cccc(NS(=O)(=O)N(C)C(C)C)c4F)c3c2)cn1 [Compound P-0075, 3-[2-fluoro-3-[[isopropyl(methyl)sulfamoyl]amino]benzoyl]-5-(2-methoxypyrimidin-5-yl)-1H-pyrrolo[2,3-b]pyridine]
20 | < 1 | < 1 | CCCN(C)S(=O)(=O)Nc1cccc(C(=O)c2c[nH]c3ncc(-c4cnc(C5CC5)nc4)cc23)c1F [Compound P-0086, 5-(2-cyclopropylpyrimidin-5-yl)-3-[2-fluoro-3-[[methyl(propyl)sulfamoyl]amino]benzoyl]-1H-pyrrolo[2,3-b]pyridine]
21 | < 1 | < 1 | CN(C)c1ccc(-c2cnc3[nH]cc(C(=O)c4cccc(NS(=O)(=O)N5CCCC5)c4F)c3c2)cn1 [Compound P-0046, N-[3-[5-[6-(dimethylamino)-3-pyridyl]-1H-pyrrolo[2,3-b]pyridine-3-carbonyl]-2-fluoro-phenyl]pyrrolidine-1-sulfonamide]
